The record followed here is paper PMC8983860, “A Novel Small Molecular Inhibitor of DNMT1 Enhances the Antitumor Effect of Radiofrequency Ablation in Lung Squamous Cell Carcinoma Cells” (Frontiers in Pharmacology, 2022).

One assay concerns the target DNMT-1 (Homo sapiens, UniProt P26358). The assay can be described thus: In vitro activity test on DNMT-1. As to conditions: for In vitro activity (IC50) compared to ZINC15602870: comparison in words; for IC50: in vitro activity on DNMT1, Table 1. Format: biochemical. The procedure: AutoDock Vina was used to screen the 72,000 compounds using the ligands in the original protein as the docking template. […] Continuous fine screening was performed with AutoDock Vina to obtain the top 50 compounds which were then analyzed by cluster analysis. Next, the representative compounds with large structural differences were empirically selected. Finally, a total of 12 representative compounds were selected (see supporting document), purchased from Medrige or synthesized by ourselves.
The side chains of compounds 03 and 07 were then introduced onto position R2 of the new parent ring (Table 1). In vitro activity tests were then performed as previously described ([Datta et al., 2009]).

Another assay concerns Notch pathway. The experiment in a line: Expression of Notch pathway-related factors (qPCR) and methylation of the miR-27-3p promoter (BSP-NGS) after iDNMT treatment. The assay is classed as cell-based, human. As to the method:
The genomic DNA samples from the clinical specimens, tumor tissues, and cultured cells were extracted and isolated using the DNeasy Blood & Tissue Kit (Cat No. 69504; QIAGEN, Hilden, Germany) and treated with the EpiTect Bisulfite Kit (Cat No. 59104; QIAGEN) according to the manufacturer’s instructions. Next, the polymerase chain reactions (PCRs) were performed using DNA samples and a high-fidelity polymerase, Platinum II Hot-Start PCR Master Mix (Cat No. 14000012; Thermo Fisher Scientific), to amplify the selected promoter region (chr19: 13836440-13838517, negative chain [-], the selected promoter region of has-pre-miR-27) of miR-27 with CpG islands (chr19: 13,835,599-13,835,325, negative chain [-]). […] Following PCR experiments, the products were directly sequenced by using Ion Torrent PGM, and the methylation rates were calculated as previously described ([Ma et al., 2020]; [Wang et al., 2021b]; [He et al., 2021]).
For quantitative PCR (qPCR) analysis, the total RNA was extracted from the clinical specimens, LSCC cells, or subcutaneous tumor tissues as described by Ma et al. (2020) before reverse transcription to generate cDNA. The expression of DNMT1, Notch-related factors, and has-pre-miR-27 was examined by real-time quantitative fluorescence PCR (RT-PCR/qPCR) ([Ma et al., 2016]; [Yang et al., 2020]; [Du et al., 2021]) with β-actin as the loading control. […]

A further assay has as its system H226 LSCC cells. The assay can be described thus: Subcutaneous H226 LSCC tumors in nude mice, oral iDNMT with or without RFA. Format: in vivo. As to the method:
The antitumor efficacy of iDNMT, RFA, and iDNMT1 + RFA on LSCC tissues was examined in nude mice. Nude mice aged 5 weeks were obtained from the Si-Bei-Fu Corporation (Beijing, China), and they were fed under specific pathogen-free conditions. The H226 cells (approximately 5 × 10^6 cells/animal), which were transfected with plasmids, were subcutaneously injected into nude mice to generate tumor tissues ([Feng et al., 2019]; [Sun et al., 2019]). The dimensions of these tumors were measured using a Vernier caliper every 7 days. Tumor volumes were calculated according to the following formula: tumoral width × tumoral width × tumoral length/2 ([Feng et al., 2019]; [Sun et al., 2019]). For RFA treatment or RFA + iDNMT treatment, RFA of the LSCC subcutaneous tumors was performed using a thyroid-ablation needle (Cat No.: UniBlate 700-103587 17G, RITA Company, Crystal Lake, IL, United States) when the tumoral volume reached ∼500 mm^3. The conditions for RFA were as follows: 2 min RFA-duration with a series of different temperatures, 65, 60, or 55°C. In addition, iDNMT was administered orally at 10, 5, 2, or 1 mg/kg ([Xie et al., 2018a]; [Xie et al., 2018b]; [Zhou et al., 2021]). The formulation of iDNMT and the oral administration were performed as previously described ([Zou et al., 2021a]; [Zou et al., 2021b]; [Wang et al., 2021c]; [Jie et al., 2021]). Subcutaneous tumors were separated from the animals, and the weights of these tumors were measured using a precision-balance.

The test system of a further assay is H226 cells. The experiment in a line: Subcellular fractionation and Western blotting of H226 cells. The assay is classed as cell-based, human. As to conditions: immunoblotting. The procedure:
The H226 cells were cultured in Dulbecco’s modified Eagle’s medium (DMEM) with 10% (v/v) fetal bovine serum (FBS). The cells were transfected with plasmids or treated with the appropriate concentration of iDNMT [low dose (0.1 μmol/L), medium dose (1 μmol/L), and high dose (10 μmol/L)]. The H226 cells were then harvested for subcellular fractionation assays as previously described. The H226 cells were split into the nuclear subfraction or the cytoplasmic subfraction ([Lu et al., 2013]; [Yang et al., 2013]; [Feng et al., 2018b]). NICD, PSEN-1, and DNMT1 expression levels were examined in the subfractions by immunoblotting using antibodies from Santa Cruz (United States) or Abcam (United Kingdom). We chose β-actin and lamin A as the cytoplasmic and nuclear loading controls or indicators, respectively ([Lu et al., 2013]; [Yang et al., 2013]; [Feng et al., 2018b]).
To further confirm the specificity of iDNMT on the Notch pathway, we analyzed the cytoplasm–nuclear subfraction using immunoblotting. […] The methylation rates of the miR-27-3p′s promoter region and expression level of DNMT-1 or miR-27-3p in cell samples of Figure 5B are shown in Supplementary Figure S1. Therefore, iDNMT represses PSEN-1 expression to inhibit cleavage of Notch, thus inhibiting NICD accumulation in H226 cells.

Chain of DNMT-1 (P26358 whole entry): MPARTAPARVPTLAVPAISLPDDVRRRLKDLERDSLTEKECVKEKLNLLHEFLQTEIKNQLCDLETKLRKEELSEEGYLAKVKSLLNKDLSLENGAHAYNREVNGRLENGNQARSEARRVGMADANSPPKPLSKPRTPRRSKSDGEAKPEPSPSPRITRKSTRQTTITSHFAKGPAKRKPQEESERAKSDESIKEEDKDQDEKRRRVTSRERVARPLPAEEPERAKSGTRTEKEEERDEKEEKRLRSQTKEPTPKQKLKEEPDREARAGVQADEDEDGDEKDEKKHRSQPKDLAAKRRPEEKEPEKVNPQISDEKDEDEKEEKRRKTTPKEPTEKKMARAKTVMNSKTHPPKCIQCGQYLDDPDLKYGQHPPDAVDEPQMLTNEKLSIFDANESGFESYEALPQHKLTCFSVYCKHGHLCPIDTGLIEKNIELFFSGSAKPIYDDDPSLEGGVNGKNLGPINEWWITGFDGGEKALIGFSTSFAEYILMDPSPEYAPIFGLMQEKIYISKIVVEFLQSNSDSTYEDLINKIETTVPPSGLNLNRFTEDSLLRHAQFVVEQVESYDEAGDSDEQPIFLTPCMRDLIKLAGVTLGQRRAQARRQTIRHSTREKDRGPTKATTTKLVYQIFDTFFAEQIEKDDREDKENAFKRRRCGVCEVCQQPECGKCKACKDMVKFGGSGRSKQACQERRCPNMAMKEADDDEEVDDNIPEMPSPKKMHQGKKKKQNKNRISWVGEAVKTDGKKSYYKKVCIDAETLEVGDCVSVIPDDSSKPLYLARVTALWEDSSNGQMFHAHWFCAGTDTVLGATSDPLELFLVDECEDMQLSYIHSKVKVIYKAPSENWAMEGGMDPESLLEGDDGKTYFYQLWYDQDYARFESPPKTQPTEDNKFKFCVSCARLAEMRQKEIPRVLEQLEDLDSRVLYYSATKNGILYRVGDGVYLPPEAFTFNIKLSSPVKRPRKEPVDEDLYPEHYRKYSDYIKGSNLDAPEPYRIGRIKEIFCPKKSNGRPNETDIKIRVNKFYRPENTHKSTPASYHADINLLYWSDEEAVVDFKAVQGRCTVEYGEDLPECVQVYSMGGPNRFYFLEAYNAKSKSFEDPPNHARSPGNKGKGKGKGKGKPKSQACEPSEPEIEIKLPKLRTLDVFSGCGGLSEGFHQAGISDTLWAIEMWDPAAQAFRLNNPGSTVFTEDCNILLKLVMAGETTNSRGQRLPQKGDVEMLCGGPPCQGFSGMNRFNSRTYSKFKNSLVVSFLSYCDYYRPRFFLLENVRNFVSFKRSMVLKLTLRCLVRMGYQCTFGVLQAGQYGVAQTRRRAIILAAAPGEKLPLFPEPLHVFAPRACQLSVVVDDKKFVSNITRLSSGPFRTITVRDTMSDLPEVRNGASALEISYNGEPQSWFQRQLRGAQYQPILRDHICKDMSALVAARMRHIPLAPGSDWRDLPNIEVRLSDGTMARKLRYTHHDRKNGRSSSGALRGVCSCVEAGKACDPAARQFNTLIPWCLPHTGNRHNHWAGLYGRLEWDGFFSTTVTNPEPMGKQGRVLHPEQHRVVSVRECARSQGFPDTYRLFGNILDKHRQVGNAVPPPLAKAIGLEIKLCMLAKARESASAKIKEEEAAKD

Take `COc1cc(C(=O)Nc2ccc(C(=O)N3CCN(C(C)=O)CC3)cc2)ccc1C` [Compound 03]: at DNMT-1, the “In vitro activity (IC50) compared to ZINC15602870” value was “improved IC50 values” and the IC50 came out at 7 µM.

Turning to `COc1cc(C(=O)Nc2ccc(S(=O)(=O)NC(=O)c3ccccc3)cc2)ccc1C` [Compound 04], at DNMT-1, the “In vitro activity (IC50) compared to ZINC15602870” value is “improved IC50 values” and the IC50 amounted to 13 µM.

With `CCC(Sc1n[nH]c(NC(=O)c2ccc(C)c(OC)c2)n1)C(=O)OC` (stereo not shown) [Compound 07], on DNMT-1, the 50% inhibitory concentration (IC50) stood at 9 µM.

Turning to `COc1cc(C(=O)Nc2ccc(C(=O)N3CCN(C(C)C)CC3)cc2)ccc1C` [Compound 02], at DNMT-1, the “In vitro activity (IC50) compared to ZINC15602870” value is given as “improved IC50 values” and the IC50 stood at 15 µM.

As to `CCOC(=O)CCCSc1n[nH]c(NC(=O)c2ccc(C)c(OC)c2)n1` [Compound 09], on DNMT-1, the midpoint of inhibition, the IC50, lay at 22 µM.

With `COC(=O)CCSc1n[nH]c(NC(=O)c2ccc(C)c(OC)c2)n1` [Compound 05], the IC50 at DNMT-1 is 18 µM.

For the compound `COc1cc(C(=O)Nc2ccc(C(C)=O)cc2)ccc1C` [Compound 01, N-(4-acetylphenyl)-3-methoxy-4-methylbenzamide], at DNMT-1, 20 µM corresponded to half-maximal inhibition (IC50).

On DNMT-1, `COc1cc(C(=O)Nc2nc(SCC3OCCO3)n[nH]2)ccc1C` [Compound 08] registered a concentration for half-maximal inhibition (IC50) of 30 µM.

In the case of `CCC(Sc1n[nH]c(NC(=O)c2ccc(OC)c(OC)c2)n1)C(=O)OC` (stereo not shown) [Compound 11], the IC50 on DNMT-1 amounted to 6 µM.

For `COCCCSc1n[nH]c(NC(=O)c2ccc(C)c(OC)c2)n1` [Compound 06], the IC50 against DNMT-1 was 38 µM.

Regarding `COc1ccc(C(=O)Nc2ccc(C(=O)N3CCN(C(C)=O)CC3)cc2)cc1OC` [Compound 10], the “methylation of the miR-27-3p promoter region” value with Notch pathway (Figure 5A) is on record as “decreased methylation of the miR-27-3p promoter region”. Moreover, in the assay on Notch pathway (N-cadherin, vimentin, survivin, cIAP-1, cIAP-2, Figure 5A), the “expression of PSEN-1 or downstream factors of the Notch pathway” value is reported as “inhibit the expression of PSEN-1 or downstream factors of the Notch pathway”. On DNMT-1, this compound displayed a half-inhibitory concentration (IC50) of 4.71 µM. The LSCC tumor volumes result in the assay on H226 LSCC cells (2 mg/kg iDNMT oral combined with 2 min RFA at 55°C) is reported as “significantly induced shrinkage of LSCC tumor volumes”. Also, in the assay on H226 LSCC cells (iDNMT with RFA 55°C for 2 min), the “EMT process of LSCC cells in subcutaneous tissues” value is reported as “inhibited the EMT process”. Further, the “miR-27-3p expression in tumor tissues” value in the assay on H226 LSCC cells (oral, 2 mg/kg, leads to inhibition of the Notch pathway) was “significantly upregulated miR-27-3p expression”. The “subcutaneous growth of H226 cells (antitumor activity)” value in the assay with H226 LSCC cells (oral, iDNMT alone, 2 mg/kg) is reported as “weak antitumor activity”. For the same compound, the “subcutaneous growth of H226 cells” value in the assay with H226 LSCC cells (oral, iDNMT alone, 5 mg/kg) is “most significant inhibition”. Besides, the “subcutaneous growth of H226 cells” value in the assay with H226 LSCC cells (oral, iDNMT alone, 10 mg/kg) is recorded as “most significant inhibition”. Besides, in the assay on H226 cells (Figure 5B), the DNMT-1 expression result is given as “no effects on DNMT-1 expression” and the PSEN-1 expression entry is reported as “inhibited PSEN-1 expression”. Besides, the “accumulation of NICD in the nuclear subfraction” value in the assay with H226 cells (iDNMT low 0.1, medium 1, high 10 μmol/L, dose-dependent) was “reduced accumulation of NICD in the nuclear subfraction”.

The term IC50 denotes the concentration needed to halve the response being measured. A higher IC50 goes with weaker potency.
